Measurements reported in ChEMBL document CHEMBL1132087, “New N-substituted 7-aminocephalosporanic acid derivatives as potential agents against Streptococcus pneumoniae. Synthesis and in vitro activity” (1999).
In brackets after ≈: the same amount, converted by molar mass.

Experiments:
Type in all cases: functional
Streptococcus pneumoniae [1] = experiment: In vitro antibacterial activity against the gram-positive bacteria, penicillin resistant Streptococcus pneumoniae (4630)
Streptococcus pneumoniae [2] = experiment: In vitro antibacterial activity against the gram-positive bacteria, penicillin sensitive Streptococcus pneumoniae (3272)
Staphylococcus aureus [3] = experiment: In vitro antibacterial activity against the gram-positive bacteria, penicillin resistant Staphylococcus aureus (853)
Streptococcus pneumoniae [4] = experiment: In vitro antibacterial activity against the gram-positive bacteria, penicillin resistant Streptococcus pneumoniae (4629)
Staphylococcus aureus [5] = experiment: In vitro antibacterial activity against the gram-positive bacteria, penicillin sensitive Staphylococcus aureus (663E)
Streptococcus pyogenes = experiment: In vitro antibacterial activity against the gram-positive bacteria, erythromycin resistant Streptococcus pyogenes
Staphylococcus aureus [6] = experiment: In vitro antibacterial activity against the gram-positive bacteria, penicillin sensitive Staphylococcus aureus (3849)
Streptococcus pneumoniae [7] = experiment: In vitro antibacterial activity against the gram-positive bacteria, penicillin resistant Streptococcus pneumoniae (4636)
Staphylococcus aureus [8] = experiment: In vitro antibacterial activity against the gram-positive bacteria, penicillin resistant Staphylococcus aureus (2672)
Staphylococcus aureus [9] = experiment: In vitro antibacterial activity against the gram-positive bacteria, penicillin sensitive Staphylococcus aureus (3072)
Streptococcus pneumoniae [10] = experiment: In vitro antibacterial activity against the gram-positive bacteria, penicillin sensitive Streptococcus pneumoniae (3512)
Streptococcus pneumoniae [11] = experiment: In vitro antibacterial activity against the gram-positive bacteria, penicillin resistant Streptococcus pneumoniae (4635)
Streptococcus pneumoniae [12] = experiment: In vitro antibacterial activity against the gram-positive bacteria, penicillin sensitive Streptococcus pneumoniae (3273)
Staphylococcus aureus [13] = experiment: In vitro antibacterial activity against the gram-positive bacteria, penicillin resistant Staphylococcus aureus (2619)

CC(=O)OCC1=C(C(=O)O)N2C(=O)[C@@H](NC(=O)CN(OCc3ccccc3Cl)C(=O)Nc3ccccc3)C2SC1 (stereo not given in full)
MIC (Streptococcus pneumoniae [1]): 8 µg/mL (≈ 13.6 µM)
MIC (Streptococcus pneumoniae [2]): 0.25 µg/mL (≈ 0.424 µM)
MIC (Staphylococcus aureus [3]): 2 µg/mL (≈ 3.4 µM)
MIC (Streptococcus pneumoniae [4]): 8 µg/mL (≈ 13.6 µM)
MIC (Staphylococcus aureus [5]): 0.5 µg/mL (≈ 0.849 µM)
MIC (Streptococcus pyogenes): 0.12 µg/mL (≈ 0.204 µM)
MIC (Staphylococcus aureus [6]): 0.5 µg/mL (≈ 0.849 µM)
MIC (Streptococcus pneumoniae [7]): 8 µg/mL (≈ 13.6 µM)
MIC (Staphylococcus aureus [8]): 2 µg/mL (≈ 3.4 µM)
MIC (Staphylococcus aureus [9]): 0.5 µg/mL (≈ 0.849 µM)
MIC (Streptococcus pneumoniae [10]): 0.12 µg/mL (≈ 0.204 µM)
MIC (Streptococcus pneumoniae [11]): 4 µg/mL (≈ 6.79 µM)
MIC (Streptococcus pneumoniae [12]): 0.25 µg/mL (≈ 0.424 µM)
MIC (Staphylococcus aureus [13]): 1 µg/mL (≈ 1.7 µM)

CC1(C)S[C@@H]2[C@H](NC(=O)Cc3ccccc3)C(=O)N2[C@H]1C(=O)O [PENICILLIN G]
MIC (Streptococcus pneumoniae [1]): 4 µg/mL (≈ 12 µM)
MIC (Streptococcus pneumoniae [2]): < 0.5 µg/mL
MIC (Staphylococcus aureus [3]): 64 µg/mL (≈ 191 µM)
MIC (Streptococcus pneumoniae [4]): 4 µg/mL (≈ 12 µM)
MIC (Staphylococcus aureus [5]): < 0.5 µg/mL
MIC (Staphylococcus aureus [6]): < 0.5 µg/mL
MIC (Streptococcus pneumoniae [7]): 8 µg/mL (≈ 23.9 µM)
MIC (Staphylococcus aureus [8]): 64 µg/mL (≈ 191 µM)
MIC (Staphylococcus aureus [9]): < 0.5 µg/mL
MIC (Streptococcus pneumoniae [10]): < 0.5 µg/mL
MIC (Streptococcus pneumoniae [11]): 8 µg/mL (≈ 23.9 µM)
MIC (Streptococcus pneumoniae [12]): 0.5 µg/mL (≈ 1.5 µM)
MIC (Staphylococcus aureus [13]): 64 µg/mL (≈ 191 µM)

CC(=O)OCC1=C(C(=O)O)N2C(=O)[C@@H](NC(=O)CN(OCc3ccc(Cl)cc3)C(=O)Nc3ccccc3)C2SC1 (stereo not given in full)
MIC (Streptococcus pneumoniae [1]): 4 µg/mL (≈ 6.79 µM)
MIC (Streptococcus pneumoniae [2]): 0.12 µg/mL (≈ 0.204 µM)
MIC (Staphylococcus aureus [3]): 1 µg/mL (≈ 1.7 µM)
MIC (Streptococcus pneumoniae [4]): 8 µg/mL (≈ 13.6 µM)
MIC (Staphylococcus aureus [5]): 0.5 µg/mL (≈ 0.849 µM)
MIC (Streptococcus pyogenes): 0.06 µg/mL (≈ 0.102 µM)
MIC (Staphylococcus aureus [6]): 0.5 µg/mL (≈ 0.849 µM)
MIC (Streptococcus pneumoniae [7]): 16 µg/mL (≈ 27.2 µM)
MIC (Staphylococcus aureus [8]): 4 µg/mL (≈ 6.79 µM)
MIC (Staphylococcus aureus [9]): 0.5 µg/mL (≈ 0.849 µM)
MIC (Streptococcus pneumoniae [10]): 0.06 µg/mL (≈ 0.102 µM)
MIC (Streptococcus pneumoniae [11]): 4 µg/mL (≈ 6.79 µM)
MIC (Streptococcus pneumoniae [12]): 0.25 µg/mL (≈ 0.424 µM)
MIC (Staphylococcus aureus [13]): 1 µg/mL (≈ 1.7 µM)

N[C@@H](C(=O)N[C@@H]1C(=O)N2C(C(=O)O)=C(Cl)CS[C@H]12)c1ccccc1 [CEFACLOR ANHYDROUS]
MIC (Streptococcus pneumoniae [1]): 16 µg/mL (≈ 43.5 µM)
MIC (Streptococcus pneumoniae [2]): 1 µg/mL (≈ 2.72 µM)
MIC (Staphylococcus aureus [3]): 64 µg/mL (≈ 174 µM)
MIC (Streptococcus pneumoniae [4]): 32 µg/mL (≈ 87 µM)
MIC (Staphylococcus aureus [5]): 1 µg/mL (≈ 2.72 µM)
MIC (Streptococcus pyogenes): 0.5 µg/mL (≈ 1.36 µM)
MIC (Staphylococcus aureus [6]): 1 µg/mL (≈ 2.72 µM)
MIC (Streptococcus pneumoniae [7]): 16 µg/mL (≈ 43.5 µM)
MIC (Staphylococcus aureus [8]): 64 µg/mL (≈ 174 µM)
MIC (Staphylococcus aureus [9]): 4 µg/mL (≈ 10.9 µM)
MIC (Streptococcus pneumoniae [10]): 1 µg/mL (≈ 2.72 µM)
MIC (Streptococcus pneumoniae [11]): 16 µg/mL (≈ 43.5 µM)
MIC (Streptococcus pneumoniae [12]): 0.5 µg/mL (≈ 1.36 µM)
MIC (Staphylococcus aureus [13]): 16 µg/mL (≈ 43.5 µM)

CC(=O)OCC1=C(C(=O)O)N2C(=O)[C@@H](NC(=O)CN(OCc3ccc(Cl)cc3)C(=O)c3ccccc3)C2SC1 (stereo not given in full)
MIC (Streptococcus pneumoniae [1]): 8 µg/mL (≈ 13.9 µM)
MIC (Streptococcus pneumoniae [2]): 0.12 µg/mL (≈ 0.209 µM)
MIC (Staphylococcus aureus [3]): 2 µg/mL (≈ 3.48 µM)
MIC (Streptococcus pneumoniae [4]): 8 µg/mL (≈ 13.9 µM)
MIC (Staphylococcus aureus [5]): 0.5 µg/mL (≈ 0.871 µM)
MIC (Streptococcus pyogenes): 0.12 µg/mL (≈ 0.209 µM)
MIC (Staphylococcus aureus [6]): 1 µg/mL (≈ 1.74 µM)
MIC (Streptococcus pneumoniae [7]): 16 µg/mL (≈ 27.9 µM)
MIC (Staphylococcus aureus [8]): 8 µg/mL (≈ 13.9 µM)
MIC (Staphylococcus aureus [9]): 0.5 µg/mL (≈ 0.871 µM)
MIC (Streptococcus pneumoniae [10]): 0.12 µg/mL (≈ 0.209 µM)
MIC (Streptococcus pneumoniae [11]): 8 µg/mL (≈ 13.9 µM)
MIC (Streptococcus pneumoniae [12]): 0.12 µg/mL (≈ 0.209 µM)
MIC (Staphylococcus aureus [13]): 2 µg/mL (≈ 3.48 µM)

CC(=O)OCC1=C(C(=O)O)N2C(=O)[C@@H](NC(=O)CN(OCc3cccc(Cl)c3)C(=O)NCc3ccccc3)C2SC1 (stereo not given in full)
MIC (Streptococcus pneumoniae [1]): 8 µg/mL (≈ 13.3 µM)
MIC (Streptococcus pneumoniae [2]): 0.25 µg/mL (≈ 0.415 µM)
MIC (Staphylococcus aureus [3]): 1 µg/mL (≈ 1.66 µM)
MIC (Streptococcus pneumoniae [4]): 8 µg/mL (≈ 13.3 µM)
MIC (Staphylococcus aureus [5]): 1 µg/mL (≈ 1.66 µM)
MIC (Streptococcus pyogenes): 0.25 µg/mL (≈ 0.415 µM)
MIC (Staphylococcus aureus [6]): 0.5 µg/mL (≈ 0.829 µM)
MIC (Streptococcus pneumoniae [7]): 32 µg/mL (≈ 53.1 µM)
MIC (Staphylococcus aureus [8]): 2 µg/mL (≈ 3.32 µM)
MIC (Staphylococcus aureus [9]): 1 µg/mL (≈ 1.66 µM)
MIC (Streptococcus pneumoniae [10]): 0.25 µg/mL (≈ 0.415 µM)
MIC (Streptococcus pneumoniae [11]): 4 µg/mL (≈ 6.63 µM)
MIC (Streptococcus pneumoniae [12]): 0.5 µg/mL (≈ 0.829 µM)
MIC (Staphylococcus aureus [13]): 2 µg/mL (≈ 3.32 µM)

CO/N=C(\C(=O)N[C@@H]1C(=O)N2C(C(=O)O)=C(CSc3nc(=O)c(O)nn3C)CS[C@H]12)c1csc(N)n1 [CEFTRIAXONE]
MIC (Streptococcus pneumoniae [1]): 2 µg/mL (≈ 3.61 µM)
MIC (Streptococcus pneumoniae [2]): 0.03 µg/mL (≈ 0.0541 µM)
MIC (Staphylococcus aureus [3]): 4 µg/mL (≈ 7.21 µM)
MIC (Streptococcus pneumoniae [4]): 4 µg/mL (≈ 7.21 µM)
MIC (Staphylococcus aureus [5]): 2 µg/mL (≈ 3.61 µM)
MIC (Streptococcus pyogenes): 0.06 µg/mL (≈ 0.108 µM)
MIC (Staphylococcus aureus [6]): 2 µg/mL (≈ 3.61 µM)
MIC (Streptococcus pneumoniae [7]): 1 µg/mL (≈ 1.8 µM)
MIC (Staphylococcus aureus [8]): 4 µg/mL (≈ 7.21 µM)
MIC (Staphylococcus aureus [9]): 4 µg/mL (≈ 7.21 µM)
MIC (Streptococcus pneumoniae [10]): 0.03 µg/mL (≈ 0.0541 µM)
MIC (Streptococcus pneumoniae [11]): 1 µg/mL (≈ 1.8 µM)
MIC (Streptococcus pneumoniae [12]): 0.03 µg/mL (≈ 0.0541 µM)
MIC (Staphylococcus aureus [13]): 4 µg/mL (≈ 7.21 µM)

CO/N=C(\C(=O)N[C@@H]1C(=O)N2C(C(=O)O)=C(COC(N)=O)CS[C@H]12)c1ccco1 [CEFUROXIME]
MIC (Streptococcus pneumoniae [1]): 16 µg/mL (≈ 37.7 µM)
MIC (Streptococcus pneumoniae [2]): 0.06 µg/mL (≈ 0.141 µM)
MIC (Staphylococcus aureus [3]): 2 µg/mL (≈ 4.71 µM)
MIC (Streptococcus pneumoniae [4]): 32 µg/mL (≈ 75.4 µM)
MIC (Staphylococcus aureus [5]): 1 µg/mL (≈ 2.36 µM)
MIC (Streptococcus pyogenes): 0.06 µg/mL (≈ 0.141 µM)
MIC (Staphylococcus aureus [6]): 1 µg/mL (≈ 2.36 µM)
MIC (Streptococcus pneumoniae [7]): 16 µg/mL (≈ 37.7 µM)
MIC (Staphylococcus aureus [8]): 2 µg/mL (≈ 4.71 µM)
MIC (Staphylococcus aureus [9]): 2 µg/mL (≈ 4.71 µM)
MIC (Streptococcus pneumoniae [10]): 0.06 µg/mL (≈ 0.141 µM)
MIC (Streptococcus pneumoniae [11]): 32 µg/mL (≈ 75.4 µM)
MIC (Streptococcus pneumoniae [12]): 0.25 µg/mL (≈ 0.589 µM)
MIC (Staphylococcus aureus [13]): 2 µg/mL (≈ 4.71 µM)

CC(=O)OCC1=C(C(=O)O)N2C(=O)[C@@H](NC(=O)CN(OCc3ccccc3)C(=O)Nc3ccccc3)C2SC1 (stereo not given in full)
MIC (Streptococcus pneumoniae [1]): 8 µg/mL (≈ 14.4 µM)
MIC (Streptococcus pneumoniae [2]): 0.12 µg/mL (≈ 0.216 µM)
MIC (Staphylococcus aureus [3]): 1 µg/mL (≈ 1.8 µM)
MIC (Streptococcus pneumoniae [4]): 8 µg/mL (≈ 14.4 µM)
MIC (Staphylococcus aureus [5]): 0.5 µg/mL (≈ 0.902 µM)
MIC (Streptococcus pyogenes): 0.12 µg/mL (≈ 0.216 µM)
MIC (Staphylococcus aureus [6]): 0.5 µg/mL (≈ 0.902 µM)
MIC (Streptococcus pneumoniae [7]): 16 µg/mL (≈ 28.9 µM)
MIC (Staphylococcus aureus [8]): 4 µg/mL (≈ 7.21 µM)
MIC (Staphylococcus aureus [9]): 1 µg/mL (≈ 1.8 µM)
MIC (Streptococcus pneumoniae [10]): 0.25 µg/mL (≈ 0.451 µM)
MIC (Streptococcus pneumoniae [11]): 8 µg/mL (≈ 14.4 µM)
MIC (Streptococcus pneumoniae [12]): 0.25 µg/mL (≈ 0.451 µM)
MIC (Staphylococcus aureus [13]): 2 µg/mL (≈ 3.61 µM)
